We go through four compounds from publication PMC7827406, “Structure–Activity Relationship (SAR) Study of Spautin-1 to Entail the Discovery of Novel NEK4 Inhibitors” (International Journal of Molecular Sciences, 2021).

Holding throughout (test): biochemical
What all share (set-up): Eurofins KinaseProfiler full panel at Km ATP, residual kinase activity (%) relative to DMSO

The target of one assay is T1, CK2α2(h) (Homo sapiens, UniProt P19784).
T1 construct: gene CSNK2A2
In short, it runs like this:
(§1)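 Compounds screened at 10 µM in radiometric kinase activity assays at Km ATP, reported as remaining kinase activity (%). A KINOMEscan competition-binding screen at 10 µM measured DNA-tagged kinase retained on immobilized active-site ligand by qPCR.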

The target in the next assay is T2, NIM1(h) (Homo sapiens, UniProt Q8IY84).
T2 construct: gene NIM1K
In short, it runs like this: as §1

Another assay addresses T3, CK2α1(h) (Homo sapiens, UniProt P68400).
T3 construct: gene CSNK2A1
In a few lines:
as §1

The next assay addresses FGFR2(N549H)(h) (Homo sapiens, UniProt P21802, N549H). In short, it runs like this:
as §1

Another assay deals with IRAK1(h) (Homo sapiens, UniProt P51617). In short, it runs like this:
as §1

For another assay, the target named is T4, MEK2(h) (Homo sapiens, UniProt P36507).
T4 construct: gene MAP2K2
In a few lines:
as §1

For the next assay, the target named is T5, cKit(V654A)(h) (Homo sapiens, UniProt P10721, V654A).
T5 construct: gene KIT
In a few lines: as §1

Another assay has as its target T6, MKK6(h) (Homo sapiens, UniProt P52564).
T6 construct: gene MAP2K6
T6 sequence (P52564 1-334): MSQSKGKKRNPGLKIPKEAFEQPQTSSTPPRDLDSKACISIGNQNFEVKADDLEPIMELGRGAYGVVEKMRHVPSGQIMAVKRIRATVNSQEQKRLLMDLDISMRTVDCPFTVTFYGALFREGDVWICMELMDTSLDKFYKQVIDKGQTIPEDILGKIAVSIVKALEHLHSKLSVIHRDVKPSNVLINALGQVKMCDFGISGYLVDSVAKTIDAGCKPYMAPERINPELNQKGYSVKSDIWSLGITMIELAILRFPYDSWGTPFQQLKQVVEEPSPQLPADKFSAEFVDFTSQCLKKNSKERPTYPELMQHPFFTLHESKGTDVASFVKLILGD
In a few lines:
as §1

The target in another assay is T7, HIPK4(h) (Homo sapiens, UniProt Q8NE63).
T7 sequence (Q8NE63 1-616): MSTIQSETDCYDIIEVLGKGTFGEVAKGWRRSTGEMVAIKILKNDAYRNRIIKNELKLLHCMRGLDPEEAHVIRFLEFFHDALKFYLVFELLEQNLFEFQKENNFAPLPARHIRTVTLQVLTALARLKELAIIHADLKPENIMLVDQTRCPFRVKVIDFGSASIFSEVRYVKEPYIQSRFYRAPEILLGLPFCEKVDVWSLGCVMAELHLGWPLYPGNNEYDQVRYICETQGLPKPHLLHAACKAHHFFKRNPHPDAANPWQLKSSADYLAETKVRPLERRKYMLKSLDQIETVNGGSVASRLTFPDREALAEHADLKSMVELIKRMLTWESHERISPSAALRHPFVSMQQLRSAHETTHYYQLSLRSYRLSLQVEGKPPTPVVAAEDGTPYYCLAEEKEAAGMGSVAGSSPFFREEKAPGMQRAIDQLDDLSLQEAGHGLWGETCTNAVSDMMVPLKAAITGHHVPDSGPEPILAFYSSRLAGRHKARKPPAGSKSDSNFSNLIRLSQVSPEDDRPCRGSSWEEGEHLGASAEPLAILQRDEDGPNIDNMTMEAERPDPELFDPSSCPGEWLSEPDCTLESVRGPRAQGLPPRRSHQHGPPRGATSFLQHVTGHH
In a few lines:
as §1

A further assay addresses T8, AMPKα1(h) (Homo sapiens, UniProt Q13131).
T8 construct: gene PRKAA1
In a few lines: as §1

For the next assay, the target named is T9, CK1ε(h) (Homo sapiens, UniProt P49674).
T9 construct: gene CSNK1E
In short, it runs like this:
as §1

The target of another assay is T10, MLK2(h) (Homo sapiens, UniProt Q02779).
T10 construct: gene MAP3K10
In a few lines:
as §1

The target in a further assay is KDR(h) (Homo sapiens, UniProt P35968). In short, it runs like this:
as §1

For the next assay, the target named is HIPK2(h) (Homo sapiens, UniProt Q9H2X6). In short, it runs like this: as §1
The mark [1] stands for this setting: read-out: Residual activity (%) Spautin-1 5aa.
The mark [2] stands for this setting: read-out: Residual activity (%) 5as.
[3] abbreviates: read-out: Residual activity (%) 5at.
Setting [4] is: read-out: Residual activity (%) 5ay.

Where two headings read alike, the source gives them in different places.

T4 sequence (P36507 whole entry): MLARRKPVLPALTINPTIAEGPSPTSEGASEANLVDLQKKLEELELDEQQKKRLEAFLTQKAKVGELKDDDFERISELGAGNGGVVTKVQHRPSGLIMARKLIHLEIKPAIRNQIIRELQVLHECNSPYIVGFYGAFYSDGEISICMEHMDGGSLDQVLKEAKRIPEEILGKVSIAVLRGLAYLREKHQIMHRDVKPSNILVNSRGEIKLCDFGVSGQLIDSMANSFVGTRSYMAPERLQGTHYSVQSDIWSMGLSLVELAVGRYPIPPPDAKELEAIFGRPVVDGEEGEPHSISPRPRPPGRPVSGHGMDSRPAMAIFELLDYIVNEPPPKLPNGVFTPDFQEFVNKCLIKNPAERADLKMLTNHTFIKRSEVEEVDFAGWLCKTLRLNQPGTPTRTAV
T8 sequence (Q13131 whole entry): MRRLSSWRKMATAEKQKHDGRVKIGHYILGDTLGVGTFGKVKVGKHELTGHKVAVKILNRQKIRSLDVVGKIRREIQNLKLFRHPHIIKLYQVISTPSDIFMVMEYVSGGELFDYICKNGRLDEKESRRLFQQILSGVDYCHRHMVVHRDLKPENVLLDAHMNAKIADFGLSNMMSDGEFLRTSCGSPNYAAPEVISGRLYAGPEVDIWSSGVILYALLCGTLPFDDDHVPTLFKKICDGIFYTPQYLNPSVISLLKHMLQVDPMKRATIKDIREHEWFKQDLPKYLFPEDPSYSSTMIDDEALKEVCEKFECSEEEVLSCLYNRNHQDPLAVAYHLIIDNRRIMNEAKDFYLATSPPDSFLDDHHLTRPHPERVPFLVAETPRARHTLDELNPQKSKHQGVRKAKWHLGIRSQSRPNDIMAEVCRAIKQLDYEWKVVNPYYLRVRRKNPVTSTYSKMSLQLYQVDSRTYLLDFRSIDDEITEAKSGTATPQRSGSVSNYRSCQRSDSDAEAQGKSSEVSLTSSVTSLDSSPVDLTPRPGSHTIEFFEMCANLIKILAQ
T8 sequence (P54619 whole entry partner): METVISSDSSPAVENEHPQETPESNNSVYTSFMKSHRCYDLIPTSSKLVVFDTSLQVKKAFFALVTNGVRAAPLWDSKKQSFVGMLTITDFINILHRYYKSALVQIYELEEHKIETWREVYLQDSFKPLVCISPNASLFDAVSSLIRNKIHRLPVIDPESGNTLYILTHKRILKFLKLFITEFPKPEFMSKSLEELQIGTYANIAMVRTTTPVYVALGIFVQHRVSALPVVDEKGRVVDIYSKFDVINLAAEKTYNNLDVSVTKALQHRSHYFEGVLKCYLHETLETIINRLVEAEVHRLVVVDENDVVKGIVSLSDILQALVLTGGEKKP
T8 sequence (Q9Y478 whole entry partner): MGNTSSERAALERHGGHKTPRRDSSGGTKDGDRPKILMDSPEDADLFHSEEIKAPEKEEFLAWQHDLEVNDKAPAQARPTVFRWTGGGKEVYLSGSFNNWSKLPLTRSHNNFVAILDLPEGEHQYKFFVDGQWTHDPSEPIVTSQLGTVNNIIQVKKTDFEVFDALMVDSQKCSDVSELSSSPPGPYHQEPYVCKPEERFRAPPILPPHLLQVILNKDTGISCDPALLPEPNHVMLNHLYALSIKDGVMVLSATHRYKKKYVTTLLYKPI
T1 sequence (P19784 whole entry): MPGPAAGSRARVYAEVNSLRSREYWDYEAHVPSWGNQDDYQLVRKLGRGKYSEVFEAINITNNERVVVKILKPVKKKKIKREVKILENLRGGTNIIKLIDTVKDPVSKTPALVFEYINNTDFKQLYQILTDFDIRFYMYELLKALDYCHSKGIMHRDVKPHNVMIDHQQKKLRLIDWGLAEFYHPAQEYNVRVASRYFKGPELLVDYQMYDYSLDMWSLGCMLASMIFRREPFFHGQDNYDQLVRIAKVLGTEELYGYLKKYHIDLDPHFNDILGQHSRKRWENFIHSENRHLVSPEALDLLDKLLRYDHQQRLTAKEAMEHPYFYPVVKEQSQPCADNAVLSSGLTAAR
T2 sequence (Q8IY84 whole entry): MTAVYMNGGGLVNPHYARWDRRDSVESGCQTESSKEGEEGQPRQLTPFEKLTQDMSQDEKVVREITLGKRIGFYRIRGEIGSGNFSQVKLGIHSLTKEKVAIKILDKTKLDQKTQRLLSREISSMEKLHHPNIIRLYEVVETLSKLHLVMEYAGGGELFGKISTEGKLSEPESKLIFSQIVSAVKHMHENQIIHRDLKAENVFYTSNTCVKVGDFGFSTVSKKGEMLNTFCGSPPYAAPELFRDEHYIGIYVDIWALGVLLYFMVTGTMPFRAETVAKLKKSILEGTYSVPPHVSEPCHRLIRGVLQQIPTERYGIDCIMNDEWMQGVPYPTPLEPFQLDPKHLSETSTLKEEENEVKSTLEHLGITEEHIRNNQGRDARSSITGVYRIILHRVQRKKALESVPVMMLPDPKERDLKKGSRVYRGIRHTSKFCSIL
Chain of IRAK1(h) (P51617 whole entry): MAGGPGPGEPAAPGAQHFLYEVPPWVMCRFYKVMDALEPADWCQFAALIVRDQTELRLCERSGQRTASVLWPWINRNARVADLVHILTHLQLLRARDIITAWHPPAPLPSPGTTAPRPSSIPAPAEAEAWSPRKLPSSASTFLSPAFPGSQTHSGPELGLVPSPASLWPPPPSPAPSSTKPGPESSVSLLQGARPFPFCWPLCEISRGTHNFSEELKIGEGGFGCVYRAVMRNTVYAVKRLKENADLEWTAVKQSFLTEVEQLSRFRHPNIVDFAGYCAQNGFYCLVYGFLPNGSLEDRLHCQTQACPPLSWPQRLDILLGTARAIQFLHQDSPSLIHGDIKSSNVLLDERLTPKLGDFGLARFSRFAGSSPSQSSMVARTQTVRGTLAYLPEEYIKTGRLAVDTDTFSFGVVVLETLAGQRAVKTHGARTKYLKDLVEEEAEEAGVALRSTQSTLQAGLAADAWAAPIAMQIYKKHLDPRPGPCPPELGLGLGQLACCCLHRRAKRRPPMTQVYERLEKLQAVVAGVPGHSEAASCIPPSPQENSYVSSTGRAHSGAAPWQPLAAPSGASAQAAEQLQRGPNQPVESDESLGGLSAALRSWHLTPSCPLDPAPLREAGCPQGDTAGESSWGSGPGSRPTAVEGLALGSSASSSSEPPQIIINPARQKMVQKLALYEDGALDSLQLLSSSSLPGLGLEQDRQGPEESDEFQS
Chain of KDR(h) (P35968 whole entry): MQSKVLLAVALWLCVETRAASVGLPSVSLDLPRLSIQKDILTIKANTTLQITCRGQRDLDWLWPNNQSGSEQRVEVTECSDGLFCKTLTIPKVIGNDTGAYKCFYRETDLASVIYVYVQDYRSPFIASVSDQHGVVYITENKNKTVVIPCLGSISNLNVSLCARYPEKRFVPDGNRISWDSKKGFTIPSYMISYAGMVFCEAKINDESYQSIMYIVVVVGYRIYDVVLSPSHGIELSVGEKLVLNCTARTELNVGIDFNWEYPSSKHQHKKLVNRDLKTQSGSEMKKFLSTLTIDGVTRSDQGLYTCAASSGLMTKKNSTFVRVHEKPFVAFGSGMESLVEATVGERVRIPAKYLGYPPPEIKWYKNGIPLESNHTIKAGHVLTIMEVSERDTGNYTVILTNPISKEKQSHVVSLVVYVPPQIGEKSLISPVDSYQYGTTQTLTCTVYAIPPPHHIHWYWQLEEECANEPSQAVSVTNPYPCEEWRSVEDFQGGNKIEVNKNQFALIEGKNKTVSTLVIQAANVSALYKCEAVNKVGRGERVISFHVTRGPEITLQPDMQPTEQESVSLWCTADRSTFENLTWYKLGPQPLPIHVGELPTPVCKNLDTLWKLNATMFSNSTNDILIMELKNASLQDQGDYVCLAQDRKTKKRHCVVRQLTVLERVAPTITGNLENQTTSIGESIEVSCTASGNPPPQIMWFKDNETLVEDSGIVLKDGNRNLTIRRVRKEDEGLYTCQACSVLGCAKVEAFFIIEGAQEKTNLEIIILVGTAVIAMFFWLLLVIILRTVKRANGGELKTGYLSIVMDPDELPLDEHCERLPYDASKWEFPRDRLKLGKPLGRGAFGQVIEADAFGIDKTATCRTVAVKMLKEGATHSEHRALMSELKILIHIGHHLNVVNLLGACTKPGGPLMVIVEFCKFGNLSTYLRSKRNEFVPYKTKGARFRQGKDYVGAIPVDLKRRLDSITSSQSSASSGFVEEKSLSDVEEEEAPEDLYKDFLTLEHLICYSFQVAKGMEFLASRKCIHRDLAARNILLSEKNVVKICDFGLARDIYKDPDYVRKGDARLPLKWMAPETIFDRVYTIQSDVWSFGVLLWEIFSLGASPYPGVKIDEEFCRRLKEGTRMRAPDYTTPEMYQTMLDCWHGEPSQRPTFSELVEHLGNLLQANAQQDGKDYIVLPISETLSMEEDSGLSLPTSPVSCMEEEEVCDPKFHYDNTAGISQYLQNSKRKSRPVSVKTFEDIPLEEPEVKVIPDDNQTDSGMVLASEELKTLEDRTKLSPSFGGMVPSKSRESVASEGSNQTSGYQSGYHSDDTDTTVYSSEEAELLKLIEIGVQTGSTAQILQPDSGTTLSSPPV
T3 sequence (P68400 whole entry): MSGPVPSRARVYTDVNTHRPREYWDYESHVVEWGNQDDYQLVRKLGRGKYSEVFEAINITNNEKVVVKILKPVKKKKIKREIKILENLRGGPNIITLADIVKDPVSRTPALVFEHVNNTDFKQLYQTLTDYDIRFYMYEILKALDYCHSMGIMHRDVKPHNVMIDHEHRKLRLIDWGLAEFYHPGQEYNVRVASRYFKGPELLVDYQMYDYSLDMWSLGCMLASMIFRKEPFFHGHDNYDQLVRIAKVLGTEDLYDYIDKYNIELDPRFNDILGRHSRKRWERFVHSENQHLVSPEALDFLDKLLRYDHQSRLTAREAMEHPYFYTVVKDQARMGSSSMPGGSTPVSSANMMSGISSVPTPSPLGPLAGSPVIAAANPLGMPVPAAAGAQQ

Regarding `Fc1ccc(CNc2ncnc3ccc(F)cc23)cc1` [5aa, 6-Fluoro-N-(4-fluorobenzyl)-4-Quinazolinamine], the remaining activity at 10 µM was 101% at CK2α2(h) (setting [1]); 108% on NIM1(h) (setting [1]); 105% on CK2α1(h) (setting [1]); 72% on FGFR2(N549H)(h) (setting [1]); 114% at IRAK1(h) (setting [1]); 92% at MEK2(h) (setting [1]). The remaining activity at 10 µM is 112% on cKit(V654A)(h) (setting [1]); 78% on MKK6(h) (setting [1]); 103% at HIPK4(h) (setting [1]); 110% at AMPKα1(h) (setting [1]); 87% on CK1ε(h) (setting [1]); 95% on MLK2(h) (setting [1]). In addition, the remaining activity at 10 µM on KDR(h) (setting [1]) was 86%; at HIPK2(h) (setting [1]) it was 109%.

Take `Fc1ccc(CCNc2ncnc3ccc(F)cc23)cc1` [5as, 6-Fluoro-N-[2-(4-Fluorophenyl)Ethyl]-4-Quinazolinamine]: the remaining activity at 10 µM on CK2α2(h) (setting [2]) is 95%; at NIM1(h) (setting [2]), 113%; at CK2α1(h) (setting [2]), 84%; at FGFR2(N549H)(h) (setting [2]) it was 80%; on IRAK1(h) (setting [2]), 87%; at MEK2(h) (setting [2]), 96%. The remaining activity at 10 µM is 85% at cKit(V654A)(h) (setting [2]); 84% on MKK6(h) (setting [2]); 92% on HIPK4(h) (setting [2]); 93% on AMPKα1(h) (setting [2]); 76% at CK1ε(h) (setting [2]); 97% on MLK2(h) (setting [2]). For the same compound, the remaining activity at 10 µM amounted to 77% on KDR(h) (setting [2]) and 96% on HIPK2(h) (setting [2]).

For `Fc1ccc2ncnc(NCCc3ccc(Cl)cc3)c2c1` [5at, N-[2-(4-Chlorophenyl)Ethyl]-6-Fluoro-4-Quinazolinamine], the remaining activity at 10 µM was 86% on CK2α2(h) (setting [3]); 110% on NIM1(h) (setting [3]); 78% on CK2α1(h) (setting [3]); 68% on FGFR2(N549H)(h) (setting [3]); 106% at IRAK1(h) (setting [3]); 99% at MEK2(h) (setting [3]). Also, the remaining activity at 10 µM at cKit(V654A)(h) (setting [3]) came to 85%; on MKK6(h) (setting [3]) it was 95%; at HIPK4(h) (setting [3]), 93%; on AMPKα1(h) (setting [3]), 85%; on CK1ε(h) (setting [3]), 82%; at MLK2(h) (setting [3]) it was 93%. The remaining activity at 10 µM on KDR(h) (setting [3]) came out at 74%; at HIPK2(h) (setting [3]), 94%.

On to `COc1ccc2ncnc(Nc3cccc(F)c3)c2c1` [5ay, N-(3-Fluorophenyl)-6-Methoxy-4-Quinazolinamine], for which the remaining activity at 10 µM on CK2α2(h) (setting [4]) turned out to be 83%; at NIM1(h) (setting [4]), 97%; at FGFR2(N549H)(h) (setting [4]) it was 66%; at IRAK1(h) (setting [4]), 87%; on MEK2(h) (setting [4]), 95%; on cKit(V654A)(h) (setting [4]) it was 92%. Besides, the remaining activity at 10 µM on MKK6(h) (setting [4]) is 74%; on HIPK4(h) (setting [4]), 42%; at AMPKα1(h) (setting [4]), 100%; on CK1ε(h) (setting [4]), 78%; at MLK2(h) (setting [4]), 96%; at KDR(h) (setting [4]), 64%. For the same compound, at HIPK2(h) (setting [4]), the remaining activity at 10 µM amounted to 86%.
